Results reported in US7323484B2, “Farnesyl transferase inhibitors” (Societe de Conseils de Recherches et d'Applications …, priority 1996, dated 2008).

Test system: MIA-PaCa pancreatic cancer cells (expressing mutated Ki-ras gene)
Assay: Antiproliferative activity on human tumoral cells, WST-1 assay, MIA PaCa-2
Type: cell-based
Conditions: MIA PaCa-2 cells, 96 hrs treatment, 0 to 100 μM, WST-1, compared to control cells
Protocol: Antiproliferative Activity of Farnesyl-Transferase Inhibitors on Human Tumoral Cells
The assays were performed using either A-427 lung carcinomas (expressing mutated Ki-ras gene), HT-29 colon adenocarcinomas (expressing wild type ras gene), Calu-1 lung carcinomas (expressing mutated Ki-ras gene), and MIA-PaCa pancreatic cancer cells (expressing mutated Ki-ras gene). These tumoral cells were seeded on 96 well plates at day 0 and maintained at 37° C. in 5% CO2 atmosphere. At day 1, cells were treated with increased concentrations of test compounds ranging from 0 to 100 μM for 96 hrs. At the end of this period, the quantification of cell proliferation was evaluated by the calorimetric assay based on the cleavage of the tetrazolium salt WST-1 by mitochondrial dehydrogenases in viable cells leading to the formazan formation (Cell Proliferation Reagent WST-1 Kit, Boehringer Mannheim, Germany). These experiments, done in octuplicate, were repeated twice. The results, shown in Table I, depict the concentration range (μM) of test compound required to inhibit proliferation as compared to control cells in which no test compound was added.

## CCCC[C@H]1c2nc(-c3ccccc3OC)cn2CCN1C(=O)[C@@H](N)CS [Compound 3, 7-(2-amino-1-oxo-3-thio-propyl)-8-butyl-2-(2-methoxy-phenyl)-5,6,7,8-tetrahydro-imidazo-[1,2a]-pyrazine]
  concentration range of test compound required to inhibit proliferation, MIA PaCa-2: 12.5 to 25 µM

## CCC(C)[C@H]1c2nc(-c3ccccc3OC)cn2CCN1C(=O)[C@@H](N)CSSC[C@H](N)C(=O)N1CCn2cc(-c3ccccc3OC)nc2[C@@H]1C(C)CC (stereo partly shown) [Compound 20, bis-1,1′-[7-(2-amino-1-oxo-3-thiopropyl)-2-(methoxyphenyl)-8-(1-methylpropyl)-5,6,7,8-tetrahydroimidazo[1,2a]pyrazine]disulfide]
  concentration range of test compound required to inhibit proliferation, MIA PaCa-2: 12.5 µM

## COc1ccccc1-c1cn2c(n1)[C@H](C(C)(C)C)N(C(=O)[C@@H](N)CS)CC2 [Compound 24, 7-(2-amino-1-oxo-3-thiopropyl)-8-(1,1-dimethylethyl)-2-(2-methoxyphenyl)-5,6,7,8-tetrahydroimidazo[1,2a]pyrazine]
  concentration range of test compound required to inhibit proliferation, MIA PaCa-2: 25 to 50 µM

## CCC(C)[C@H]1c2nc(-c3ccccc3OCc3ccccc3)cn2CCN1C(=O)[C@@H](N)CS (stereo partly shown) [Compound 25, 7-(2-amino-1-oxo-3-thiopropyl)-8-(1-methylpropyl)-2-(2-(phenylmethoxy)phenyl)-5,6,7,8-tetrahydroimidazo[1,2a]pyrazine]
  concentration range of test compound required to inhibit proliferation, MIA PaCa-2: 6.25 to 12.5 µM

## COc1ccccc1-c1cn2c(n1)[C@H](CC1CCCCC1)N(C(=O)[C@@H](N)CS)CC2 [Compound 26, 7-(2-amino-1-oxo-3-thiopropyl)-8-(cyclohexylmethyl)-2-(2-methoxyphenyl)-5,6,7,8-tetrahydroimidazo[1,2a]pyrazine]
  concentration range of test compound required to inhibit proliferation, MIA PaCa-2: 6.25 to 12.5 µM

## CCCC[C@H]1c2nc(-c3c(O)cccc3OC)cn2CCN1C(=O)[C@@H](N)CS [Compound 29, 7-(2-amino-1-oxo-3-thiopropyl)-8-butyl-2 (2-hydroxy-6-methoxyphenyl)-5,6,7,8-tetrahydro[1,2a]pyrazine]
  concentration range of test compound required to inhibit proliferation, MIA PaCa-2: 6.25 to 12.5 µM

## COc1ccccc1-c1cn2c(n1)[C@H](C(C)(C)C)N(C(=O)[C@@H](N)CSSC[C@H](N)C(=O)N1CCn3cc(-c4ccccc4OC)nc3[C@@H]1C(C)(C)C)CC2 [Compound 30, bis-1,1′-[7-(2-amino-1-oxo-3-thiopropyl)-8-(1,1-dimethylethyl)-2-(2-methoxyphenyl)-5,6,7,8-tetrahydroimidazo[1,2a]pyrazine]disulfide]
  concentration range of test compound required to inhibit proliferation, MIA PaCa-2: 12.5 to 25 µM
